From US4560676A, “N^α -desacetylthymosinα1 and process” (The Rockefeller University, priority 1981, dated 1985)
Where no end group is shown, it is not given here.

What was measured:
[1] = test system: spleen cells of adult thymectomized mice; experiment: rosette inhibition assay (azathioprine-sensitive rosette assay); type: cell-based; conditions: restoration of azathioprine sensitivity in rosette formation
Experimental: The desacetylthymosin α1 prepared and characterized above was compared with thymosin α1, prepared on both benzyhydrylamine and PAM resins in the rosette inhibition assay (azathioprine-sensitive rosette assay) as described by Dardenne and Bach in "The Biological Action of Thymic Hormones" (van Bekkum, D. K., Ed.), page 235 (Kooyker Scientific Publications, Rotterdam, 1975). In this assay the peptides are tested for ability to restore azathioprine sensitivity in rosette formation by spleen cells of adult thymectomized mice.

[2] = test system: T-cell differentiation and function; conditions: several in vitro and in vivo assay systems; cited from earlier work

Substance	activity in rosette inhibition assay compared with each other and with natural thymosin α1 [1]	activity relative to fraction 5 [2] [times]
SDAAVDTSSEITTKDLKEKKEVVEEAEN [desacetylthymosin α1, N^α -desacetylthymosin α1]	equally active	
thymosin α1 (SDAAVDTSSEITTKDLKEKKEVVEEAEN; ends and bridges not checked; UniProt P06454 2-29, looked up) [synthetic thymosin α1 prepared on benzhydrylamine and PAM resins; component of thymosin fraction 5]	equally active	10 to 1000
